ChEMBL document CHEMBL1146095, “Modeling the preferred shapes of polyamine transporter ligands and dihydromotuporamine-C mimics: shovel versus hoe” (J Med Chem, 2006)

Legend:
[1] = test system: Mammalian polyamine transporter; assay: Inhibition of [14C]spermidine uptake into polyamine transporter expressed in L1210 cells; format: functional, cell-based, Mus musculus
[2] = Selectivity for CHO cells over CHO-MG cells; format: functional
CHO = assay: Cytotoxicity against CHO cell line; format: functional, cell-based; conditions: Cricetulus griseus
CHO-MG = assay: Cytotoxicity against CHO-MG cell line; format: functional, cell-based; conditions: Cricetulus griseus

CCN(CCCNCCCN)Cc1c2ccccc2cc2ccccc12.Cl.Cl.Cl
Ki [1]: 23.5 µM | Ratio IC50 [2]: 0.8 | IC50 (CHO): 5.3 µM | IC50 (CHO-MG): 4 µM
